Target: T1, human AMPK α1β1γ1 enzyme (Homo sapiens, UniProt Q13131+Q9Y478)
T1 construct: purchased Carna Biosciences, Inc
Experiment: AMPK activator evaluation, Test Example 1 (mobility shift, FL-Peptide 7)
Type: biochemical
Details: human AMPK α1β1γ1, control without compound = 100%; for Emax: read-out: Emax (maximum rate of increase in activity within the measurement range)
Experimental: To a buffer solution consisting of a 50 mM HEPES-NaOH buffer solution (pH 7.0), 100 mM NaCl, 10 mM magnesium chloride, 0.1% bovine serum albumin, 0.2 mM sodium orthovanadate(V), 1 mM ethylene glycol-bis(2-aminoethyl ether)-N,N,N′,N′-tetraacetic acid (EGTA), 5 mM disodium (3-glycerophosphate and 2 mM dithiothreitol, a human AMPK α1β1γ1 enzyme (manufactured by Carna Biosciences, Inc.) was added in an amount to give a conversion rate of approximately 10% by reaction for 2 hours, and a compound dissolved in DMSO was added thereto so as to have a 1% DMSO concentration. The obtained liquid was left to stand for 10 minutes.
To the liquid, a substrate solution consisting of a 50 mM HEPES-NaOH buffer solution (pH 7.0), 100 mM NaCl, 10 mM magnesium chloride, 0.1% bovine serum albumin, 0.2 mM sodium orthovanadate(V), 1 mM ethylene glycol-bis(2-aminoethyl ether)-N,N,N′,N′ tetraacetic acid (EGTA), 5 mM disodium β-glycerophosphate, 2 mM dithiothreitol, 0.4 mM ATP and 3 μM FL-Peptide 7 (manufactured by Caliper Life Sciences, Inc.) was added in equal amount (10 μl in total). The obtained liquid was allowed to react at 25° C. for 2 hours, and 10 μl of 20 mM EDTA was then added thereto to stop the reaction.
To detect phosphorylated fluorescent substrates, the reaction liquid was applied to a measuring device, LabChip EZ Reader II manufactured by Caliper Life Science, Inc., for detecting fluorescence by using differences in mobility due to differences in charge. The setting conditions for the device were pressure, −1.5 PSI; upstream voltage, −2250 V; downstream voltage, −400 V; post sample buffer sip time, 40 seconds; final delay, 120 seconds; and peak order, Product First.

T1 sequence (Q13131 10-559 limits assumed): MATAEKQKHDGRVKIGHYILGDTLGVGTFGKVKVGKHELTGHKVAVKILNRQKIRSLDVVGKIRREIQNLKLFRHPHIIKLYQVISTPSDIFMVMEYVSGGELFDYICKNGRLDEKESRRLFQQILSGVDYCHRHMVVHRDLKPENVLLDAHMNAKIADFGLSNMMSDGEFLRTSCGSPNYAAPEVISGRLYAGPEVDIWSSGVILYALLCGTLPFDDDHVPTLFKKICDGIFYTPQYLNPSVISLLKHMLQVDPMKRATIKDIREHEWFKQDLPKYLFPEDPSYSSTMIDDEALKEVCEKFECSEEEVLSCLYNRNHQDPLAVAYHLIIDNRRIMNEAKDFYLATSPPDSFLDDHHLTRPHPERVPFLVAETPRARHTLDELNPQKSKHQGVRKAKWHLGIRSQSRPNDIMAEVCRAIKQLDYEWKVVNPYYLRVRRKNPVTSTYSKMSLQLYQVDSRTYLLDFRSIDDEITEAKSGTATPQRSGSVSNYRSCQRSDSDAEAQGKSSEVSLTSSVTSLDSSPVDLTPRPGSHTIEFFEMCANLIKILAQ
T1 sequence (Q9Y478 whole entry): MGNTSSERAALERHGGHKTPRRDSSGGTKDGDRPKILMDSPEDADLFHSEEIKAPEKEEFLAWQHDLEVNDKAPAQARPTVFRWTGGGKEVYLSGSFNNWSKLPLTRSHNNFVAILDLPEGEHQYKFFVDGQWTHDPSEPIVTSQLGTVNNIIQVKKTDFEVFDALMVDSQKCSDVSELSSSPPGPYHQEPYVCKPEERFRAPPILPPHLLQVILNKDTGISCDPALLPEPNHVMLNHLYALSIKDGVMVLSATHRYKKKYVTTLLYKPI
T1 sequence (P54619 whole entry partner): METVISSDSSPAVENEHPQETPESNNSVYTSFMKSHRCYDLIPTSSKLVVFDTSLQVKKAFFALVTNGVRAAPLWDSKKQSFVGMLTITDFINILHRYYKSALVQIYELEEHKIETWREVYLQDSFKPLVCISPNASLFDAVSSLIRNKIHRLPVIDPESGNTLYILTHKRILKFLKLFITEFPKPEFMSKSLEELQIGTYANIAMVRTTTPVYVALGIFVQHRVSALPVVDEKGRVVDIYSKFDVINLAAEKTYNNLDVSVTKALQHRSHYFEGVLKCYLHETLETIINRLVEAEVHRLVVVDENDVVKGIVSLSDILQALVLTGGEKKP

| SMILES | EC150 (compound concentration showing 150% relative to the control) [nM] | Emax [%] |
| --- | --- | --- |
| C#CC(C)Oc1nc2nc(-c3ccc(N4CCOCC4)cc3)c(Cl)cc2[nH]1 (centres unmarked) [Compound B-2] | 3.6 | 399 |
| Cc1ccc(Oc2nc3nc(N4CCCCC4)c(Cl)cc3[nH]2)cc1C(=O)O [Compound B-3] | 23 | 313 |
| Cc1ccc(Oc2nc3cc(-c4ccc5c(ccn5C)c4)ccc3[nH]2)cc1C(=O)O [Compound B-5] | 4700 | 176 |
| Cc1ccc(Oc2nc3nc(-c4ccc(N5CCOCC5)cc4)ncc3[nH]2)cc1C(=O)O [Compound B-7] | 5100 | 246 |
| Cc1ccc(Oc2nc3nc(-c4ccccc4)c(Cl)cc3[nH]2)cc1C(=O)O [Compound B-10] | 280 | 290 |
| Cc1ccc(Oc2nc3nc(-c4ccc(CO)cc4)c(Cl)cc3[nH]2)cc1C(=O)O [Compound B-13] | 76 | 311 |
| Cc1ccc(Oc2nc3nc(-c4ccc(-c5ccccc5)cc4)c(Cl)cc3[nH]2)cc1C(=O)O [Compound B-22] | 13 | 339 |
| Cc1ccc(-c2ccc(-c3nc4nc(Oc5ccc(C)c(C(=O)O)c5)[nH]c4cc3Cl)cc2)cc1 [Compound B-32] | 70 | 301 |
| Cc1ccc(Oc2nc3nc(-c4cccc(O)c4)c(Cl)cc3[nH]2)cc1C(=O)O [Compound B-40] | 110 | 297 |
| Cc1ccc(Oc2nc3nc(-c4ccc(N5CCOCC5)nc4)c(Cl)cc3[nH]2)cc1C(=O)O [Compound B-63] | 100 | 321 |
| Cc1ccc(Oc2nc3cc(-c4ccc(N5CCOCC5)cc4)c(C)nc3[nH]2)cc1C(=O)O [Compound B-81] | 25 | 283 |
| Clc1cc2[nH]c(Oc3ccccc3)nc2nc1-c1ccc(N2CCOCC2)cc1 [Compound B-104] | 190 | 267 |
| CC(C)(C(=O)O)c1ccc(Oc2nc3nc(-c4ccc(N5CCOCC5)cc4)c(Cl)cc3[nH]2)cc1 [Compound B-107] | 250 | 249 |
| O=C(O)/C=C/c1cccc(Oc2nc3nc(-c4ccc(N5CCOCC5)cc4)c(Cl)cc3[nH]2)c1 [Compound B-109] | 140 | 315 |
| O=C(O)COc1ccc(Oc2nc3nc(-c4ccc(N5CCOCC5)cc4)c(Cl)cc3[nH]2)cc1 [Compound B-110] | 160 | 288 |
| NC(=O)c1cccc2ccc(Oc3nc4nc(-c5ccc(N6CCOCC6)cc5)c(Cl)cc4[nH]3)cc12 [Compound B-113] | 13 | 316 |
| NCc1ccc(Oc2nc3nc(-c4ccc(N5CCOCC5)cc4)c(Cl)cc3[nH]2)cc1 [Compound B-117] | 370 | 243 |
| Cc1ccc(Oc2nc3nc(-c4ccc(N5CCOCC5)cc4)c(Cl)cc3[nH]2)cc1 [Compound B-121] | 97 | 278 |
| O=C(O)c1cncc(Oc2nc3nc(-c4ccc(N5CCOCC5)cc4)c(Cl)cc3[nH]2)c1 [Compound B-126] | 180 | 262 |
| OCc1ccc(Oc2nc3nc(-c4ccc(N5CCOCC5)cc4)c(Cl)cc3[nH]2)cc1 [Compound B-131] | 44 | 298 |
| NS(=O)(=O)c1ccc(Oc2nc3nc(-c4ccc(N5CCOCC5)cc4)c(Cl)cc3[nH]2)cc1 [Compound B-133] | 360 | 234 |
| O=C(O)CCc1ccc(Oc2nc3nc(-c4ccc(N5CCOCC5)cc4)c(Cl)cc3[nH]2)cc1 [Compound B-136] | 27 | 333 |
| OCCc1ccc(Oc2nc3nc(-c4ccc(N5CCOCC5)cc4)c(Cl)cc3[nH]2)cc1 [Compound B-137] | 25 | 301 |
| O=C1CCc2ccc(Oc3nc4nc(-c5ccc(N6CCOCC6)cc5)c(Cl)cc4[nH]3)cc2N1 [Compound B-141] | 61 | 319 |

The next lines start with the values.

| EC150 (compound concentration showing 150% relative to the control) [nM] | Emax [%] | SMILES |
| --- | --- | --- |
| 66 | 295 | Clc1cc2[nH]c(Oc3cccc(-c4nnn[nH]4)c3)nc2nc1-c1ccc(N2CCOCC2)cc1 [Compound C-1] |
| 33 | 322 | Cc1ccc(Oc2nc3nc(-c4ccc(N5CCOCC5)cc4)c(Cl)cc3[nH]2)cc1C(=O)NC#N [Compound C-9] |
| 7.4 | 356 | CC(C)(C(=O)O)c1ccc(Oc2nc3nc(-c4ccc(N5CCCC5)cc4)c(Cl)cc3[nH]2)cc1 [Compound C-11] |
| 36 | 338 | Cc1ccc(Oc2nc3nc(-c4ccc(OCC(C)(C)O)cc4)c(Cl)cc3[nH]2)cc1C(=O)O [Compound C-21] |
| 17 | 237 | COc1ccc(Oc2nc3nc(-c4ccc(N5CCOCC5)cc4)c(Cl)cc3[nH]2)cc1C(=O)O [Compound C-24] |
| 8.3 | 349 | COc1ccc(-c2ccc(-c3nc4nc(Oc5ccc(C)c(C(=O)O)c5)[nH]c4cc3Cl)cc2)cc1 [Compound C-29] |
| 68 | 253 | O=C(O)c1cc(Oc2nc3nc(-c4ccc(N5CCOCC5)cc4)c(Cl)cc3[nH]2)ccc1Cl [Compound C-32] |
| 52 | 329 | Cc1ccc(Oc2nc3nc(-c4ccc(OCC(C)C)cc4)c(Cl)cc3[nH]2)cc1C(=O)O [Compound C-33] |
| 1.3 | 349 | Cc1ccc(Oc2nc3nc(-c4ccc(C5(CO)CC5)cc4)c(Cl)cc3[nH]2)cc1C(=O)O [Compound C-37] |
| 35 | 279 | CC(C)(C(=O)O)c1ccc(Oc2nc3nc(-c4ccc(N5CCCC5)cc4)c(F)cc3[nH]2)cc1 [Compound C-39] |
| 16 | 331 | Cc1ccc(Oc2nc3nc(-c4ccc(C(C)(C)O)cc4)c(Cl)cc3[nH]2)cc1C(=O)O [Compound C-63] |
| 4.2 | 335 | CCc1ccc(Oc2nc3nc(-c4ccc(N5CCOCC5)cc4)c(Cl)cc3[nH]2)cc1C(=O)O [Compound C-70] |
| 120 | 298 | Cc1ccc(Oc2nc3nc(-c4ccc(N5CCCCC5=O)cc4)c(Cl)cc3[nH]2)cc1C(=O)O [Compound C-88] |
| 470 | 242 | CCc1ccc(Oc2nc3nc(-c4ccc(N5CCOCC5)cc4)c(Cl)cc3[nH]2)cn1 [Compound C-89] |
| 17 | 309 | Cc1ccc(Oc2nc3nc(C#Cc4ccccc4)c(Cl)cc3[nH]2)cc1C(=O)O [Compound C-95] |
| 99 | 326 | Cc1ccc(Oc2nc3nc(-c4ccc(N5CCOCC5)cc4)c(C(F)(F)F)cc3[nH]2)cc1C(=O)O [Compound C-96] |
| 1700 | 165 | CC(C)(C(N)=O)c1ccc(Oc2nc3nc(-c4ccc(N5CCOCC5)cc4)c(Cl)cc3[nH]2)cc1 [Compound C-98] |
| 170 | 205 | CC(C)(CO)c1ccc(Oc2nc3nc(-c4ccc(N5CCOCC5)cc4)c(Cl)cc3[nH]2)cc1 [Compound C-99] |
| 590 | 212 | COc1ccc(Oc2nc3nc(-c4ccc(N5CCOCC5)cc4)c(Cl)cc3[nH]2)cn1 [Compound C-100] |
| 300 | 232 | CC(C)(C(=O)NCCO)c1ccc(Oc2nc3nc(-c4ccc(N5CCOCC5)cc4)c(Cl)cc3[nH]2)cc1 [Compound C-107] |
| 2.1 | 334 | O=P(O)(O)c1cccc(Oc2nc3cc(Cl)c(-c4ccc(N5CCOCC5)cc4)nc3[nH]2)c1 [Compound C-118] |
| 130 | 237 | CC(=O)NC(C)(C)c1ccc(Oc2nc3nc(-c4ccc(N5CCOCC5)cc4)c(Cl)cc3[nH]2)cc1 [Compound C-119] |

Reference: patent US9133186B2, “Hetero ring-fused imidazole derivative having AMPK activating effect” (Shionogi & Co., Ltd., priority 2010, dated 2015)
